From patent publication US10409869B2, “(R)- and (S)-1-(3-(3-N,N-dimethylaminocarbonyl)phenoxyl-4-nitrophenyl)-1-ethyl-N,N'-bis (ethylene)phosphoramidate, compositions and methods for their use and preparation” (OBI Pharma, Inc., priority 2015, dated 2019)

Legend:
[1] = Body weight and toxicity in the orthotopic HepG2-GFP mouse model; assay type: in vivo, nude mice; conditions: intra-peritoneal, low (2.5 mg/kg) or high (5 mg/kg) dose
AL7473 cells = assay: T-cell leukemia animal model, human CD45 FACS; assay type: in vivo, mouse
Description: Leukemic cells were prepared by thawing out ˜150×10^6 of AL7473 cells from LN2 (about 2-3 vials) and placing them into a 37° C. water bath rapidly. All of the cells were transferred into a 50 ml falcon tube with 40 ml pre-warmed complete medium. The cells were centrifuged at 1200 rpm for 5 min. The cells were re-suspended with 40 ml RPMI1640. The cells were then counted. The cells were centrifuged at 1200 rpm for 5 min. and re-suspended with ice cold PBS to 2 million cell per 100 ul PBS. 100 ul of saline containing 2×10^6 cells prepared above were used to inject into each mouse by IV. The FACS analysis was done for blood weekly during the experimental period by transferring samples into FACS tubes, adding human CD45 FITC and isotypes into corresponding tubes for all the samples and incubating the cells on ice for 30 min. in the dark. 2 ml of red blood cell lysing buffer was added to each tube and incubated on ice for another 30 min. in the dark. […] Samples were analyzed on a BD Calibur by using Cell Quest or Flowjo and the results were analyzed by using Prism 5.0. […]
Peripheral blood was collected weekly for human CD45 antibody FACS detected during treatment since the treatment start on Day 43 post cell inoculation. […] Blood, spleen and bone marrow of all mice were collected for human CD45 FACS detected. […]

[2] = test system: HepG2-GFP human hepatocellular carcinoma; assay: Orthotopic HepG2-GFP human hepatocellular carcinoma mouse model, tumor burden; assay type: in vivo, nude mice; conditions: at tested dosages
Description: Female athymic nude mice (6 weeks of age) were used in this study. The animals were purchased from Beijing HFK Bioscience, Co., Ltd and maintained in a High Efficiency Particulate Air Filter (HEPA) filtered environment with cages, food, and bedding sterilized by irradiation or autoclaving. A total of 32 nude mice were used for the study. HepG2-GFP human hepatocellular carcinoma cells (AntiCancer, Inc., San Diego, Calif.) were incubated with RPMI-1640 (Gibco-BRL, Life Technologies, Inc.), which contained 10% FBS. Cells were grown in a CO2 Water Jacketed Incubator (Forma Scientific) maintaining 37° C. and a 5% CO2/95% air atmosphere. Cell viability was determined by trypan blue exclusion analysis. Five female athymic nude mice were injected subcutaneously with a single dose of 5×10^6 HepG2-GFP cells. Tumors were harvested when their size reached 1 cm^3 and the tumor tissues were then cut into small fragments of 1 mm^3. Forty female nude mice were implanted orthotopically with a single piece of tumor fragment, which was derived from a subcutaneous tumor model of HepG2-GFP human hepatocellular carcinoma. The tumor tissue was orthotopically implanted in the right lobe of the liver in each mouse by SOI (Surgical Orthotopic Implantation). […]
During the period of the study, all of the experimental mice were checked daily for mortality or signs of morbidity. […] The body weights of the mice were measured twice weekly during the study period. […] Comparisons of body weights and tumor burdens in different groups were analyzed using the Student's t-test with an α=0.05 (two-sided). […]
The progressions of orthotopic HepG2-GFP hepatocellular carcinoma in different groups were monitored by real time imaging. […] Typical tumor images at the end of the study in each group and tumor growth curves derived from the signals of tumor fluorescence, which were analyzed using the Power Station software (INDEC Biosystems, CA, USA), are shown in FIG. 6 and FIG. 7, respectively
Tumor IR was calculated based on the final average tumor weights according to the formula: IR (%)=(1−treatment(t)/control(c))×100

## C[C@H](OP(=O)(N1CC1)N1CC1)c1ccc([N+](=O)[O-])c(Oc2cccc(C(=O)N(C)C)c2)c1 (single isomer, unassigned) [TH3424]
[1]
  toxicity to the experimental mice: no obvious toxicity
[1]; listed as TH2870-2
  toxicity to the experimental mice: no obvious acute toxicity
AL7473 cells; after the second dosing, treatment groups 2-4 vs vehicle group 1, P<0.001
  percentages of human CD45+ leukemia cells in peripheral blood: significantly lower than vehicle group
AL7473 cells; groups 2-4 vs group1, P<0.01, bone marrow in group2 P<0.05
  tumor burden (human CD45) in blood, spleen and bone marrow at termination: significant differences
[2]
  inhibitory effect on orthotopic HepG2-GFP model: very strong inhibitory effect
